Measurements as given in patent US7625928B2, “Nitroxide radioprotector formulations and methods of use” (priority 2002, dated 2009).

Assay: In vitro percutaneous absorption of Tempol after multiple applications of Formulation V, Franz static diffusion cells, 30-minute exposures (Example II)
Type: in vitro ADME, human
Conditions: test 3, three applications, result in words
Description: The skin was wiped with two dry cotton swabs after each application. Upon completion of the final application and skin wiping, the stratum corneum was removed from the skin. […] Franz static diffusion cells (15 mm diameter orifice, O-ring joint, Crown Bio Scientific, Clinton, N.J.) were mounted on 9-cell manifolds and maintained at a constant temperature of 32° C. by use of re-circulating water baths. […] Each diffusion cell was assembled by placing the excised human abdominal skin from a single donor dermal-side down and then a Teflon® O-ring (which rested in the groove of the donor side, top half, of the diffusion cell. The donor side (top half) of the diffusion cell was then placed on top of the O-ring resting on the skin and held in place by use of a pinch clamp. The joint between the donor and receptor compartments of each cell was wrapped with Parafilm® to prevent evaporation of the receptor solution. […] Air bubbles were dispelled from under the skin. […] The formulation was applied in an alternating fashion to 6 diffusion cells at 0.18 mL of formulation per cell. The diffusion cell sampling port was sealed with […] ® to prevent evaporation. […] If appropriate, the cell was re-dosed with test formulation after removal of the previous dose using two cotton swabs wiped across the skin surface. […]

CC1(C)CC(O)CC(C)(C)N1[O] [Tempol, 4-hydroxy-2,2,6,6-tetramethylpiperidine-1-oxyl]
third application levels versus levels in the second time point: twice as high
